According to patent US20240158447A1, “PEPTIDES FOR USE IN THE TREATMENT OR PREVENTION OF MYOCARDIAL DAMAGE” (THE UNIVERSITY OF WESTERN AUSTRALIA, priority 2020, published 2024):
“Also recorded” adds a separate entry of the source.

Legend:
Cavβ2 subunit = biological target: T1, Cavβ2 subunit (Homo sapiens, UniProt Q08289); experiment: Competitive binding affinity assay, biotinylated AID affinity beads vs Cavβ2 subunit (Example 9); settings: dose-response 0, 10 nM to 100 μM peptide; FIG. 9
T1 construct: incubated with 100 μg of Cavβ2 subunit from cardiac homogenate and cytoplasmic protein preparation; from tissue; host or cells: cardiac homogenate and cytoplasmic protein preparation
Procedure: In this experiment, a binding affinity assay was utilized to examine the binding efficacy of AID peptide variants presented in Table 8, compared to the original AID peptide.
Biotinylation of original AID (no TAT): For each reaction (a dose-response curve consisted of 6 reactions), 0.02 nM […] was incubated in biotinylation solution (0.1M MES buffer containing 1 nM amine-PEG11-biotin and 0.2 nM EDC) for 2 hrs at room temperature with agitation (400 rpm). Affinity beads (Dynabeads M-280 Streptavidin, ThermoFisher Scientific) were then incubated with biotinylated AID peptide for 30 min at room temperature with agitation (400 rpm). Afterwards, biotinylated AID-coated affinity beads were washed, initially in 0.1% BSA in PBS and then three times in PBS for 3 min.
Biochem J. 2000; 348 Pt 3:657-65; Haase H, Striessnig J, Holtzhauer M, Vetter R, Glossmann H. A rapid procedure for the purification of cardiac 1,4-dihydropyridine receptors from porcine heart. Eur J Pharmacol. 1991; 207(1):51-9).
Competitive binding of AID-affinity beads and Cavβ2 subunit: Cavβ2-AID mutant peptide dilutions were then incubated with biotinylated AID-coated affinity beads for 2 hrs at room temperature with gentle agitation (400 rpm). Samples were placed on a magnetic stand to allow affinity beads to migrate to the magnet. Supernatant was removed and treated with 1× sample buffer (62.5 mM Tris-HCl, pH 6.8, 2% SDS, 10% glycerol, 100 mM DTT, 0.002% Bromophenol Blue) for 5 min at 95° C. Resulting protein was analysed by immunoblot.

cTnI-G203S mice [1] = experiment: Echocardiography of pre-cardiomyopathic cTnI-G203S mice (Example 15); type: in vivo, mouse; settings: 5 μM, 3×/wk/5 wk, FIG. 15
Excerpt: Twenty to thirty week-old male mice expressing the human cTnI gene encoding the human disease-causing cTnI-G203S were generated and used for the in vivo studies. By way of background, the mice develop hallmark features of HCM between 20 and 25 weeks (Viola H, Johnstone V, Cserne Szappanos H, Richman T, Tsoutsman T, Filipovska A, et al. The L-type Ca(2+) channel facilitates abnormal metabolic activity in the cTnI-G2035 mouse model of hypertrophic cardiomyopathy. J Physiol. 2016; 594(14):4051-70; Viola H M, Shah A A, Johnstone V P A, Cserne Szappanos H, Hodson M P, Hool L C. Characterization and validation of a preventative therapy for hypertrophic cardiomyopathy in a murine model of the disease. Proc Nati Aced Sci U S A. 2020; 117(37):23113-24; Tsoutsman T, Chung J, Doolan A, Nguyen L, Williams IA, Tu E, et al. Molecular insights from a novel cardiac troponin I mouse model of familial hypertrophic cardiomyopathy. J Mol Cell Cardiol. 2006; 41(4):623-32). Age-matched male mice expressing the normal human troponin I gene were used as controls and indicated as wild-type (wt). For in vivo studies, 20-week old cTnI-G203S mice were treated with 10 μM AID(S)-TAT (2 mg/kg) or 5 μM AID-TAT mutant peptides via intraperitoneal injection, 3 times per week for a total duration of 5 weeks. The peptide was dissolved in phosphate buffered saline solution (PBS), and the total amount of the 10 μM AID-TAT mutant peptides administered over 5 weeks was 0.9 mg. The total amount of the 5 μM AID-TAT mutant peptides administered over 5 weeks was 0.45 mg Male mice were utilized to eliminate potential differences in responses due to gender. The number of mice used is indicated by N.
Echocardiographic studies to measure left ventricular function were performed on mice under light methoxyflurane anaesthesia with the use of an i13L probe on a Vivid™ 7 IQ ultrasound system (GE Healthcare, Little Chalfont, UK) as previously described (Viola H, Johnstone V, Cserne Szappanos H, Richman T, Tsoutsman T, Filipovska A, et al. The L-type Ca(2+) channel facilitates abnormal metabolic activity in the cTnI-G2035 mouse model of hypertrophic cardiomyopathy. J Physiol. 2016; 594(14):4051-70; Viola H M, Shah A A, Johnstone V P A, Cserne Szappanos H, Hodson M P, Hool L C. Characterization and validation of a preventative therapy for hypertrophic cardiomyopathy in a murine model of the disease. Proc Natl Acad Sci U S A. 2020; 117(37):23113-24; Viola H M, Johnstone V P A, Cserne Szappanos H, Richman T R, Tsoutsman T, Filipovska A, et al. The Role of the L-Type Ca(2+) Channel in Altered Metabolic Activity in a Murine Model of Hypertrophic Cardiomyopathy. JACC Basic Transl Sci. 2016; 1(1-2):61-72). Each N represents the average of quantitative measurements from wt or cTnI-G203S mice for each treatment group.

cTnI-G203S mice [2] = experiment: Heart weight to body weight ratio of treated cTnI-G203S mice; type: in vivo, mouse; settings: 5 μM, 3×/wk/5 wk; compared with cTnI-G203S AID(S)-TAT; FIG. 16
Procedure: The effect of treatment of the mice with peptides on the development of hypertrophy assessed as changes in heart weight to body weight ratio was also examined. […] FIG. 16 presents the mean±SEM of heart weight to body weight ratio measurements from wt and cTnI-G203S mice treated with 10 μM AID(S)-TAT, 10 μM AID-TAT, 5 μM AIDP7-TAT, 5 μM AIDP14-TAT, 5 μM AIDP15-TAT or 5 μM AIDP16-TAT. n=number of mice as indicated. *P<0.05, **P<0.01 compared with cTnI-G203S AID(S)-TAT as determined by Kruskal-Wallis tests.

T1 sequence (Q08289 whole entry): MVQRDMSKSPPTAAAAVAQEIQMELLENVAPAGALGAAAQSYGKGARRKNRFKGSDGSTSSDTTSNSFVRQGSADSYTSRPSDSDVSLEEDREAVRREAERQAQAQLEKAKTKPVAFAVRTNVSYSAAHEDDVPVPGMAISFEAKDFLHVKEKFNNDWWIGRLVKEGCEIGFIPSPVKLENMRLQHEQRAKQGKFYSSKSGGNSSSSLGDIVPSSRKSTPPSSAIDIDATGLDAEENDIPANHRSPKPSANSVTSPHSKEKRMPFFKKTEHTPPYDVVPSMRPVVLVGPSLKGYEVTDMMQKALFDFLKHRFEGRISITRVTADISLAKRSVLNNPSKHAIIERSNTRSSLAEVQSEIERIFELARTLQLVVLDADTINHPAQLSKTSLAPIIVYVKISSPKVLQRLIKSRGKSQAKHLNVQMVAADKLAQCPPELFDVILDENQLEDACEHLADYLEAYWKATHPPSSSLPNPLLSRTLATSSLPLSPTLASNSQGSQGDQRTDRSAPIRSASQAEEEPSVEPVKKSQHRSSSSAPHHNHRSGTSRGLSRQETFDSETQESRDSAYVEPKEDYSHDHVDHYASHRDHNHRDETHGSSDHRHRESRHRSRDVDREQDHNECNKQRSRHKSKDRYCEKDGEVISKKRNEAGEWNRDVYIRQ

AIDP7-TAT: QQQEEDLKGYLDWITQAE with TAT sequence
K0.5 values compared to AID peptide (Cavβ2 subunit): decreased K0.5 values | IVDS (cTnI-G203S mice [1]): trend toward increased LVEDd and LVEDs, and decreased IVDS | EF, ejection fraction (cTnI-G203S mice [1]; versus AID(S)-TAT): effectively restored | FS, fractional shortening (cTnI-G203S mice [1]; versus AID(S)-TAT): effectively restored | IVSs, intraventricular septum in systole (cTnI-G203S mice [1]; versus AID(S)-TAT): significant decrease; also recorded: effectively restored | LVEDd, left ventricular end diameter during diastole (cTnI-G203S mice [1]; versus AID(S)-TAT): trend toward increased LVEDd and LVEDs, and decreased IVDS | LVEDs, left ventricular end diameter during systole (cTnI-G203S mice [1]; versus AID(S)-TAT): trend toward increased LVEDd and LVEDs, and decreased IVDS | LVPWd, left ventricular posterior wall in diastole (cTnI-G203S mice [1]; versus AID(S)-TAT): effectively restored | LVPWs, left ventricular posterior wall in systole (cTnI-G203S mice [1]; versus AID(S)-TAT): effectively restored; also recorded: significant decrease | heart weight to body weight ratio (cTnI-G203S mice [2]): significantly decreased heart weight/body weight
